One test concerns the target MOR (Homo sapiens, UniProt P35372). The test can be described thus: PDSP secondary radioligand displacement assay, Ki. The format is binding. The conditions noted are these: supplement xlsx.
A further test addresses T1, Alpha2B (Homo sapiens, UniProt P18089).
T1 sequence (P18089 1-450): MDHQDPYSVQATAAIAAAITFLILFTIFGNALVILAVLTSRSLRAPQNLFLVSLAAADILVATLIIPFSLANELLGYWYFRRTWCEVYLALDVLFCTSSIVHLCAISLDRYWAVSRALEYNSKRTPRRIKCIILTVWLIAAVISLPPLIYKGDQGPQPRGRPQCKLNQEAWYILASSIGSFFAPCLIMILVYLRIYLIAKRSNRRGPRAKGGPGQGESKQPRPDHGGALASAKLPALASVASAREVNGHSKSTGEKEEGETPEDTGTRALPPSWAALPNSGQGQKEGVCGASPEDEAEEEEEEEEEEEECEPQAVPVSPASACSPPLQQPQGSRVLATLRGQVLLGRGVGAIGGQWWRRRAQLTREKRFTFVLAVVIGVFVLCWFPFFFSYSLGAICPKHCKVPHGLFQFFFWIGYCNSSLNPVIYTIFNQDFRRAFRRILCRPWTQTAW
The test can be described thus: PDSP secondary radioligand displacement assay, Ki. The format is binding. Particulars: supplement xlsx. The text has this: (§1) Thirteen analogs, in addition to ibogamine itself (Figure ), were submitted to the PDSP for biological evaluation. Primary radioligand displacement assays were run on 44 neurotransmitter receptors and transporters to give a snapshot of the receptor affinity for each ligand.
A general note: Displacement assays read how much labelled ligand stays bound in the presence of the test substance.

For the next test, the target named is H3 (Homo sapiens, UniProt Q9Y5N1). Briefly: PDSP secondary radioligand displacement assay, Ki. The format is binding.
Text: as §1

A further test has as its target T2, M2 (Homo sapiens, UniProt P08172).
T2 sequence (P08172 1-466): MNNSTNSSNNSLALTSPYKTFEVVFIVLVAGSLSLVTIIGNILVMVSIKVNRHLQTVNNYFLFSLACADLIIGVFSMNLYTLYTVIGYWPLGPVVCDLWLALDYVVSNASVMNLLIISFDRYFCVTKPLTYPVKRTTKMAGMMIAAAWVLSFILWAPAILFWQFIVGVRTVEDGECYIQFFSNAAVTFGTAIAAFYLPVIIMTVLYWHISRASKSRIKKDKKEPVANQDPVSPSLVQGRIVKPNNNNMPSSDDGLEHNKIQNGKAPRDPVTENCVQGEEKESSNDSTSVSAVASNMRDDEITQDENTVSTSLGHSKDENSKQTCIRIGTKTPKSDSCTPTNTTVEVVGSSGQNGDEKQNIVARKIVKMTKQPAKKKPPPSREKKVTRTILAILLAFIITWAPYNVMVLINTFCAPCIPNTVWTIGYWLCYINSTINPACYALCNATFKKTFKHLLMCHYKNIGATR
Briefly: PDSP secondary radioligand displacement assay, Ki. Type of test: binding.
Text: as §1

Another test concerns the target 5-HT2A (Homo sapiens, UniProt P28223). The test can be described thus: PDSP secondary radioligand displacement assay, Ki. Type of test: binding. The conditions noted are these: supplement xlsx.
Text: as §1

Another test has as its target 5-HT3 (Homo sapiens, UniProt P46098). The test can be described thus: PDSP secondary radioligand displacement assay, Ki. The format is binding. The conditions noted are these: supplement xlsx.
Text: as §1

A further test has as its target SERT (Homo sapiens, UniProt P31645). The test can be described thus: PDSP secondary radioligand displacement assay, Ki. The format is binding. Particulars: supplement xlsx.
Text: as §1

For the next test, the target named is T3, Alpha2A (Homo sapiens, UniProt P08913).
T3 sequence (P08913 1-465): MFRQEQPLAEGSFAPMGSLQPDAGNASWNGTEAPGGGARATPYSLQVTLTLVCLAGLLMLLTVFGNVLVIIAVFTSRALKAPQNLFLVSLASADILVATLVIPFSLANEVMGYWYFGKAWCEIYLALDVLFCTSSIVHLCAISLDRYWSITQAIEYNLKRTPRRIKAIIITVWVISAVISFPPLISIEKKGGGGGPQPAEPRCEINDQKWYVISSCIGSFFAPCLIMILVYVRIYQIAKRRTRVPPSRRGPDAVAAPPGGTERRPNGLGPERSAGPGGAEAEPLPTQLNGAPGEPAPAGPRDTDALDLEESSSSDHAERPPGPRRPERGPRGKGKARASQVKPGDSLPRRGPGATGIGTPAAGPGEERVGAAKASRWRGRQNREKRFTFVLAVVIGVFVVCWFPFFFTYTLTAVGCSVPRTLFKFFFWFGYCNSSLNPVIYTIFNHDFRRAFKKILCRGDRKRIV
Briefly: PDSP secondary radioligand displacement assay, Ki. The format is binding.
Text: as §1

The next test addresses T4, Alpha2C (Homo sapiens, UniProt P18825).
T4 sequence (P18825 1-462): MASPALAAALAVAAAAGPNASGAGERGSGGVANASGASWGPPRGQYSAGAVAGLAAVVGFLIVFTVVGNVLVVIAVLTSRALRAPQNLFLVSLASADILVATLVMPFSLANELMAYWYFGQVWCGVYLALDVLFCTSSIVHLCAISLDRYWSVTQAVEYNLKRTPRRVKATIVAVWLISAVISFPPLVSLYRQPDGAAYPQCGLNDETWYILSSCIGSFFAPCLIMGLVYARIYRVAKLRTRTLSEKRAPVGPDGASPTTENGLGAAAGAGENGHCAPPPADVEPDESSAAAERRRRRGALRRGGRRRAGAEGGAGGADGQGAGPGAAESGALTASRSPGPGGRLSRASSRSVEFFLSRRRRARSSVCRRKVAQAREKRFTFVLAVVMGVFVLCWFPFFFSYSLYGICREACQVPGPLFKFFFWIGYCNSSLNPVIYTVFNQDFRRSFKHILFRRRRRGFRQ
Briefly: PDSP secondary radioligand displacement assay, Ki. Particulars: Ki values (nM) Alpha2C, supplement xlsx and text. The format is binding.
Text: as §1

For the next test, the target named is M3 (Homo sapiens, UniProt P20309). The test can be described thus: PDSP secondary radioligand displacement assay, Ki. The format is binding.
Text: as §1

The target in a further test is KOR (Homo sapiens, UniProt P41145). Briefly: PDSP secondary radioligand displacement assay, Ki. Type of test: binding. Particulars: supplement xlsx.
Text: as §1

For a further test, the target named is NET (Homo sapiens, UniProt P23975). The test can be described thus: PDSP secondary radioligand displacement assay, Ki. Type of test: binding.
Text: as §1

Another test addresses 5-HT1D (Homo sapiens, UniProt P28221). The test can be described thus: PDSP secondary radioligand displacement assay, Ki. Particulars: supplement xlsx. The format is binding.
Text: as §1

The next test deals with S2R. Details: method as in earlier work. The conditions noted are these: ref 30 (Bowen et al., 1995); read-out: affinity at S2R (Ki); cited from earlier work.
The target in the next test is DAT (Homo sapiens, UniProt Q01959). Briefly: PDSP secondary radioligand displacement assay, Ki. Type of test: binding.
Text: as §1

A further test concerns the target M4 (Homo sapiens, UniProt P08173). The test can be described thus: PDSP secondary radioligand displacement assay, Ki. The conditions noted are these: supplement xlsx. Type of test: binding.
Text: as §1

A further test has as its target M5 (Homo sapiens, UniProt P08912). The test can be described thus: PDSP secondary radioligand displacement assay, Ki. Type of test: binding.
Text: as §1

The next test addresses Alpha1B (Homo sapiens, UniProt P35368). Briefly: PDSP secondary radioligand displacement assay, Ki. The format is binding.
Text: as §1

The target of a further test is M1 (Homo sapiens, UniProt P11229). Briefly: PDSP secondary radioligand displacement assay, Ki. The format is binding.
Text: as §1

The target in a further test is H4 (Homo sapiens, UniProt Q9H3N8). Briefly: PDSP secondary radioligand displacement assay, Ki. Type of test: binding. Particulars: supplement xlsx.
Text: as §1

The target of a further test is H1 (Homo sapiens, UniProt P35367). The test can be described thus: PDSP secondary radioligand displacement assay, Ki. Type of test: binding.
Text: as §1

A further test has as its target D3 (Homo sapiens, UniProt P35462). The test can be described thus: PDSP secondary radioligand displacement assay, Ki. The format is binding.
Text: as §1

A further test has as its target D2 (Homo sapiens, UniProt P14416). The test can be described thus: PDSP secondary radioligand displacement assay, Ki. Type of test: binding.
Text: as §1

Bounds are passed on as bounds.

5-HT1D, sequence (P28221 whole entry, species assumed): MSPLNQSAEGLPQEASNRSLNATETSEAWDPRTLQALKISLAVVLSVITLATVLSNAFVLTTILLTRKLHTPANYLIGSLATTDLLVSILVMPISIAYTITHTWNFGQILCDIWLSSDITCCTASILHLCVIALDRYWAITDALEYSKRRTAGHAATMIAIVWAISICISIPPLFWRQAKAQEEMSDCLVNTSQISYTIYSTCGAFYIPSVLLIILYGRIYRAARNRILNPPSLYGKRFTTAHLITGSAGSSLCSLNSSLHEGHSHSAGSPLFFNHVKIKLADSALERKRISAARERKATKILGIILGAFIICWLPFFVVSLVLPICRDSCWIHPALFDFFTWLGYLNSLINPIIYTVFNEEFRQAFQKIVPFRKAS
MOR, sequence (P35372 whole entry): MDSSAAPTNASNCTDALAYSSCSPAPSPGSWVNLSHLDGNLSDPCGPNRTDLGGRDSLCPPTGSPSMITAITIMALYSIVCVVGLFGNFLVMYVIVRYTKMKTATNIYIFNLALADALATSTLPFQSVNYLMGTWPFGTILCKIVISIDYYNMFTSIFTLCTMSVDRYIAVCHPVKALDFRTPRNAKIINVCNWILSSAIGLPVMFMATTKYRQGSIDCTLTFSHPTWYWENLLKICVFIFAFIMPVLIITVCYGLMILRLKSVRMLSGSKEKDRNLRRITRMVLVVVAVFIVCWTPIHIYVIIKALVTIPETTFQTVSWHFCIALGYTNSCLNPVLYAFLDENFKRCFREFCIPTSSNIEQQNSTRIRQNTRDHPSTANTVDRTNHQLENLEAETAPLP
H3, sequence (Q9Y5N1 whole entry): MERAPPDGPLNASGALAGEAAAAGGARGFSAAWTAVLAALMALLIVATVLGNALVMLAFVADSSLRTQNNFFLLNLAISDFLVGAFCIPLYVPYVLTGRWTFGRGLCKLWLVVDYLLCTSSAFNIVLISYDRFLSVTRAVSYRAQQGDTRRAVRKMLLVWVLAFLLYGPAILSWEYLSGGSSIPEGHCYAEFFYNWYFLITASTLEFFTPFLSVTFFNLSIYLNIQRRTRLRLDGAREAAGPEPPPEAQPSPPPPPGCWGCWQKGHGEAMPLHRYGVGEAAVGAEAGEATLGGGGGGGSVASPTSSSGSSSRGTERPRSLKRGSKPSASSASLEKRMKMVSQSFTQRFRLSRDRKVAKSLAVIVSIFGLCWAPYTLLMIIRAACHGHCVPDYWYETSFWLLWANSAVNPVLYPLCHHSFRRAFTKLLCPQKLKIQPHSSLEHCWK
KOR, sequence (P41145 whole entry): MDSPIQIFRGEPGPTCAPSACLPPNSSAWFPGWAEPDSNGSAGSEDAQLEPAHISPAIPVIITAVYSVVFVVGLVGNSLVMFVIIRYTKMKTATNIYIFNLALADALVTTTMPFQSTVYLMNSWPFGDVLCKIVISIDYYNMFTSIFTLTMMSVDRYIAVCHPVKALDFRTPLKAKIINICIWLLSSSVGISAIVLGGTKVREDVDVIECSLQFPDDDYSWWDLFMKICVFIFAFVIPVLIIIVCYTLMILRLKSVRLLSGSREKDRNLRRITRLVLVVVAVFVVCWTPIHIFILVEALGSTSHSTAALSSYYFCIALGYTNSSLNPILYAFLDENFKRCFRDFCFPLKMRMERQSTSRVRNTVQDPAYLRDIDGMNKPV
DAT, sequence (Q01959 whole entry, species assumed): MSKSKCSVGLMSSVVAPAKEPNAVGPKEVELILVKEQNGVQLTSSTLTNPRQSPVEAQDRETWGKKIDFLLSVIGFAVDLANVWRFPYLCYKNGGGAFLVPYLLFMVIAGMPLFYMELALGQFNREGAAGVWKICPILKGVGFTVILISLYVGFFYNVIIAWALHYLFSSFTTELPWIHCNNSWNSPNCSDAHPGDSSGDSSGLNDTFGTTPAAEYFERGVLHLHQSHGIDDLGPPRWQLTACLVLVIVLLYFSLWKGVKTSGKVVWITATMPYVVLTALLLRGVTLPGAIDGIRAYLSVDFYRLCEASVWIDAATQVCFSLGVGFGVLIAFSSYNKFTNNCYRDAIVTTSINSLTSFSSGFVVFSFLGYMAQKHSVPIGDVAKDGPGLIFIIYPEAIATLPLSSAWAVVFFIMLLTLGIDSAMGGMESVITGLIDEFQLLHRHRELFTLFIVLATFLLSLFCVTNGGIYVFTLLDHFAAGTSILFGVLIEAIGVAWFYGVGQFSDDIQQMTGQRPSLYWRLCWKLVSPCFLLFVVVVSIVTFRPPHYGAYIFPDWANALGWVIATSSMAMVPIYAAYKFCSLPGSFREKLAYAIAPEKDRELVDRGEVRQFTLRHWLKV
M3, sequence (P20309 whole entry): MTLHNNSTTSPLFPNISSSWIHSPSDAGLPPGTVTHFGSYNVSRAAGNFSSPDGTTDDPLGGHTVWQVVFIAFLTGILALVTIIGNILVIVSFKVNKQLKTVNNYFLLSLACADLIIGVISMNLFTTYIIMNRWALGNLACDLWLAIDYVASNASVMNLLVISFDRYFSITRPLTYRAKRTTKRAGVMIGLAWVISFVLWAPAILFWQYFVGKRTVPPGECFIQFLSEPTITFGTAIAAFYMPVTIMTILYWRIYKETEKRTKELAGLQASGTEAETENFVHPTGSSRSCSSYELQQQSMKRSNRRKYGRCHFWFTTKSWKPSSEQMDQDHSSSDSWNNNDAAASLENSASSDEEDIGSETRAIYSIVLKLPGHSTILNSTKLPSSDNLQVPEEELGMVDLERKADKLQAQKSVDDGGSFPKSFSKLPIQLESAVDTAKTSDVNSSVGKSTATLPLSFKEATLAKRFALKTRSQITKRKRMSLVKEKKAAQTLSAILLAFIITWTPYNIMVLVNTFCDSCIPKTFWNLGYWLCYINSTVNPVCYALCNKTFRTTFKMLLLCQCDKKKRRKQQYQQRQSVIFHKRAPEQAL
NET, sequence (P23975 whole entry): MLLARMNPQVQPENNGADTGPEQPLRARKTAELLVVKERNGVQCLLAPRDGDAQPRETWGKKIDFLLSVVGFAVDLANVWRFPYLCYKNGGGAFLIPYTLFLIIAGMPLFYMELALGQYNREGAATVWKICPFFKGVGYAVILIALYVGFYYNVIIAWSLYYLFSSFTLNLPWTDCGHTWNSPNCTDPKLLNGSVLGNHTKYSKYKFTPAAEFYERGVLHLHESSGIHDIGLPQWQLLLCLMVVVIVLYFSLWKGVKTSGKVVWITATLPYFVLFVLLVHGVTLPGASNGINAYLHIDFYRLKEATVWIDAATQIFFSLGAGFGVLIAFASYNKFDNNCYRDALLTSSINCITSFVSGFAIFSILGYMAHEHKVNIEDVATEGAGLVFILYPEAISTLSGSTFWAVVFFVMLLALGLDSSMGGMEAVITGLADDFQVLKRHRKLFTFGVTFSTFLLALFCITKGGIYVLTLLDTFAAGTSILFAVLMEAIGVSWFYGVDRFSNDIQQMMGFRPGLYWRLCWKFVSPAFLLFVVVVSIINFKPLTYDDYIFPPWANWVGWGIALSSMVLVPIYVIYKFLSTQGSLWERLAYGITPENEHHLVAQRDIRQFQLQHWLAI
SERT, sequence (P31645 whole entry, species assumed): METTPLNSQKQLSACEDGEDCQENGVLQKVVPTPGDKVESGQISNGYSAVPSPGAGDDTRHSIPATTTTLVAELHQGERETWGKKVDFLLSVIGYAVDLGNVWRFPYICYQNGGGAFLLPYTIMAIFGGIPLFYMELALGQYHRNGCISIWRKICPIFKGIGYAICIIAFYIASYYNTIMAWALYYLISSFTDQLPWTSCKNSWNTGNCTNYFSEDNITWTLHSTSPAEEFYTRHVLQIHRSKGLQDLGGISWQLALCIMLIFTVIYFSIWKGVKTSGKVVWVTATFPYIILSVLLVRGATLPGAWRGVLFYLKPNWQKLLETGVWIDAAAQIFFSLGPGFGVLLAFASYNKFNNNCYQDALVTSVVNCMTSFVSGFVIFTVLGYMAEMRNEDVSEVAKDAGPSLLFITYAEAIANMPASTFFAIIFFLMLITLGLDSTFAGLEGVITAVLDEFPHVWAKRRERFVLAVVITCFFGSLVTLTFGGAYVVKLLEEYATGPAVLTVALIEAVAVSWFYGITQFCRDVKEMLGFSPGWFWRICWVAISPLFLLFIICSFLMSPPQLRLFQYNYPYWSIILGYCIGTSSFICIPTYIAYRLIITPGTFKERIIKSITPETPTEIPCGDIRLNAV
5-HT2A, sequence (P28223 whole entry): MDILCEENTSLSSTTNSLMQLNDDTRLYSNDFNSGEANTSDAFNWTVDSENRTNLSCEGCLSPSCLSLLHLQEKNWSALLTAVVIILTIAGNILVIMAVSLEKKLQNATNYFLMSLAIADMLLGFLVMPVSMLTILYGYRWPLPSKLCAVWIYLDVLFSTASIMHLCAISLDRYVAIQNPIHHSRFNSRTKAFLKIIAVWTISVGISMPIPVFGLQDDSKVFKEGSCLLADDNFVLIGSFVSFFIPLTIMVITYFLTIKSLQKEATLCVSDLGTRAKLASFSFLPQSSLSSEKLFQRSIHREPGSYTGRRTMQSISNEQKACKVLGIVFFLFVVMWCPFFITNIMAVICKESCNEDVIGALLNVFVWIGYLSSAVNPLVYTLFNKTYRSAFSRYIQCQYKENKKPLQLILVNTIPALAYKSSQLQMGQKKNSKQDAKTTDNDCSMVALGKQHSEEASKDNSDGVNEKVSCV
M1, sequence (P11229 whole entry): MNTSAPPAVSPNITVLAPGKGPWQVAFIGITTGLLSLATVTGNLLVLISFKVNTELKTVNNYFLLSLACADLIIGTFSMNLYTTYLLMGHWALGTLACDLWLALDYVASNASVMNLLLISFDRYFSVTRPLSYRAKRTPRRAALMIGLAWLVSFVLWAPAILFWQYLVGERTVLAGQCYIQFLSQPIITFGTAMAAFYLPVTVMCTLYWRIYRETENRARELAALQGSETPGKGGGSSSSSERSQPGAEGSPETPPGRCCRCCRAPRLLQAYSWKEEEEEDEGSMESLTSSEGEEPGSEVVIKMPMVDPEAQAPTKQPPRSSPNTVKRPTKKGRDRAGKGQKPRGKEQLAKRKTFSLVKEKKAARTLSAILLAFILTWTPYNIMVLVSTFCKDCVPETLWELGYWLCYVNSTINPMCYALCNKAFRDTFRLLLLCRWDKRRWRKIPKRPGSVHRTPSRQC

As usually defined, the Ki is the equilibrium dissociation constant of an inhibitor or competing ligand from its target. `CCC1CC2CC3c4[nH]c5cc(Cl)ccc5c4CCN(C2)C13` (stereo not drawn) [7b]: the Ki at MOR was 4450 nM; at Alpha2B, 2360 nM; on H3, 2880 nM; on M2 it was 2940 nM; at 5-HT2A it was 3000 nM; on 5-HT3, 1010 nM. Further, the Ki stood at 177 nM on SERT; 1720 nM on Alpha2A; 1360 nM on Alpha2C; 811 nM on M3; 1400 nM at KOR; 1790 nM on NET.

On SERT, `CCC1C[C@H]2CC3c4[nH]c5ccccc5c4CCN(C2=O)C13` (stereo in doubt) [compound 22] displayed a Ki of 1380 nM.

Turning to `CC[C@H]1C[C@@H]2C[C@H]3c4[nH]c5cc(OC)ccc5c4CC[N@@](C2)[C@@H]13` [tabernanthine (3), tabernanthine, reference compound], the Ki is 2300 nM at H3; 1300 nM on SERT; 7660 nM at 5-HT1D; 319 nM on KOR; 194 nM at S2R.

As to `CC(C)[C@H]1CC2CC3c4[nH]c5ccccc5c4CCN(C2)C31` (stereo partly drawn) [7h], the Ki at MOR is 3130 nM; on DAT it was 2020 nM; at SERT, 709 nM; on M4 it was 416 nM; on M3 it was 414 nM; at M5, 1100 nM. On KOR, this compound displayed a Ki of 995 nM.

For `CCC1CC2CC3c4[nH]c5cc(F)ccc5c4CCN(C2)C13` (stereo not drawn) [7a], the Ki was determined as 2690 nM at M2; 1320 nM on DAT; 153 nM at SERT; 4100 nM at Alpha2A; 623 nM on Alpha2C; 734 nM at M3. Moreover, the values for the Ki on KOR, on Alpha1B and at NET were 4770 nM, 2090 nM and 5700 nM, respectively.

Take ibogaine [ibogaine (2)]: the Ki at S2R is 201 nM.

Take `CCC1CC2CC3c4[nH]c5cc(Br)ccc5c4CCN(C2)C13` (stereo not drawn) [7c]: the inhibitory constant (Ki) worked out at 4210 nM on MOR; 1620 nM on Alpha2B; 3320 nM at H3; 8030 nM at M2; 807 nM on DAT; 1400 nM at 5-HT3. The Ki was 162 nM at SERT; 1630 nM on Alpha2A; 71 nM at Alpha2C; 7460 nM on 5-HT1D; 1520 nM at M3; 1040 nM on KOR. On NET, this compound yielded a Ki of 1750 nM.

For `CCC1CC2CC3c4[nH]c5cc6c(cc5c4CCN(C2)C13)OCO6` (stereo not drawn) [7f], the results for the Ki on H3 and on 5-HT1D were 5410 nM and above 10000 nM, respectively.

On SERT, `C[C@H]1CC2CC3c4[nH]c5ccccc5c4CCN(C2)C31` (stereo partly drawn) [7g] had a Ki of 371 nM.

As for `CCC1CC2CC3c4[nH]c5cc(C(F)(F)F)ccc5c4CCN(C2)C13` (stereo not drawn) [7e], the Ki at MOR worked out at 3810 nM; on M1 it was 4570 nM; on Alpha2B, 1650 nM; on H3, 2290 nM; at 5-HT2A, 1800 nM; at SERT, 206 nM. The Ki on Alpha2A was 1420 nM; on Alpha2C, 110 nM; at H4, 3030 nM; on M3 it was 1950 nM; on KOR, 1500 nM.

On to `CC[C@H]1C[C@H]2C[C@H]3c4[nH]c5ccccc5c4CCN(C2)[C@@H]13` [ibogamine (1), ibogamine, reference compound], for which the Ki at MOR is 2460 nM; on SERT it was 272 nM; on M3, 2460 nM; on S2R it was 137 nM.

`c1ccc2c3c([nH]c2c1)C1CC2C[C@H](C4CCOCC4)C1N(CC3)C2` (stereo partly drawn) [7i]: the Ki amounted to 1810 nM at MOR; 138 nM at M1; 882 nM at H1; 150 nM on M2; 1710 nM on SERT; 37.9 nM at M4. Also, the Ki on M3 came to 73.7 nM; on M5, 224 nM.

As to `CCC1CC2CC3c4c(c5ccccc5n4CC=C(C)C)CCN(C2)C13` (stereo not drawn) [compound 23], the Ki on MOR turned out to be 6440 nM; on H1, 1710 nM; at D3 it was 249 nM; at D2, 2420 nM.

The values above are taken from publication PMC12183592, “Discovery of Iboga-Derived Ligands for the Sigma‑2 Receptor” (ACS Bio & Med Chem Au, 2025).
